How the values were obtained:
[1] = biological target: GDP-bound NRAS wild-type protein (Homo sapiens, UniProt P01111); test: Binding to NRAS by surface plasmon resonance (SPR), Single Cycle Kinetics; conditions: KD ratio NRAS/KRAS, class symbols
[2] = biological target: GDP-bound HRAS wild-type protein (Homo sapiens, UniProt P01112); test: Binding to HRAS by surface plasmon resonance (SPR), Single Cycle Kinetics; conditions: KD ratio HRAS/KRAS, class symbols
Sequence of GDP-bound HRAS wild-type protein (P01112 whole entry): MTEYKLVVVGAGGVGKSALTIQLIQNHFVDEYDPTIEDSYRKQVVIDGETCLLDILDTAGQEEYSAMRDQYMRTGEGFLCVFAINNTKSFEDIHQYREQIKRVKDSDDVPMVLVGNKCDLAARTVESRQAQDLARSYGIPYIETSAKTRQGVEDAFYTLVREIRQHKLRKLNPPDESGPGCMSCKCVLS

Sequence of GDP-bound NRAS wild-type protein (P01111 whole entry): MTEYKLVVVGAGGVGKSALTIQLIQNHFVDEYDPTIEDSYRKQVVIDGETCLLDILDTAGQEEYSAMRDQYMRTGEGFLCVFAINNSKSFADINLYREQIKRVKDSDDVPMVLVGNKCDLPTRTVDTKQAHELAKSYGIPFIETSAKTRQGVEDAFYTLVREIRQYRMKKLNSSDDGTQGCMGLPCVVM

Row | Structure (SMILES) | NRAS/KRAS (ratio of KD value with respect to GDP-bound NRAS wild-type protein to KD value with respect to KRAS) [1] | HRAS/KRAS (ratio of KD value with respect to GDP-bound HRAS wild-type protein to KD value with respect to KRAS) [2]
1 | CCC[C@H]1C(=O)N[C@@H]([C@@H](C)CC)C(=O)N(C2CC2)CC(=O)N(C)[C@H]2C/C=C\CCN(C2=O)[C@@H](Cc2ccc(C(F)(F)F)cc2)C(=O)N(C)CC(=O)N[C@@H](CCc2ccc(C(F)(F)F)c(OC)c2)C(=O)N2C[C@H](OCC)C[C@H]2C(=O)NC2(CC(C)(C)C2)C(=O)N(C)[C@@H](CC(C)(C)C)C(=O)N(C)[C@H](C(=O)N(C)C)CC(=O)N1C [PP2746] | A (a compound having 10 or more and less than 20 is denoted as A) | A (a compound having 10 or more and less than 20 is denoted as A)
2 | CCO[C@@H]1C[C@H]2C(=O)NC3(CC(C)(C)C3)C(=O)N(C)[C@@H](CC(C)(C)C)C(=O)N(C)[C@H](C(=O)N(C)C)CC(=O)N(C)[C@@H](COC)C(=O)N[C@@H]([C@@H](C)CC)C(=O)N(C3CC3)CC(=O)N(C)[C@H]3C/C=C\CCN(C3=O)[C@@H](Cc3ccc(C(F)(F)F)cc3)C(=O)N(C)CC(=O)N[C@@H](CCc3ccc(C(F)(F)F)c(OC)c3)C(=O)N2C1 [PP2748] | A (a compound having 10 or more and less than 20 is denoted as A) | A (a compound having 10 or more and less than 20 is denoted as A)
3 | CCC[C@H]1C(=O)N[C@@H]([C@@H](C)CC)C(=O)N(C2CC2)CC(=O)N(C)[C@H]2C/C=C\CCN(C2=O)[C@@H](Cc2ccc(C(F)(F)F)cc2)C(=O)N(C)CC(=O)N[C@@H](CCc2ccc(Cl)c(Cl)c2)C(=O)N2C[C@H](OCC)C[C@H]2C(=O)NC2(CC(C)(C)C2)C(=O)N(C)[C@@H](CC(C)(C)C)C(=O)N(C)[C@H](C(=O)N(C)C)CC(=O)N1C [PP2749] | AA (a compound having 20 or more is denoted as AA) | A (a compound having 10 or more and less than 20 is denoted as A)
4 | CCO[C@@H]1C[C@H]2C(=O)NC3(CC(C)(C)C3)C(=O)N(C)[C@@H](CC(C)(C)C)C(=O)N(C)[C@H](C(=O)N(C)C)CC(=O)N(C)[C@@H](COC)C(=O)N[C@@H]([C@@H](C)CC)C(=O)N(C3CC3)CC(=O)N(C)[C@H]3C/C=C\CCN(C3=O)[C@@H](Cc3ccc(C(F)(F)F)cc3)C(=O)N(C)CC(=O)N[C@@H](CCc3ccc(Cl)c(Cl)c3)C(=O)N2C1 [PP2750] | AA (a compound having 20 or more is denoted as AA) | A (a compound having 10 or more and less than 20 is denoted as A)
5 | CCC[C@H]1C(=O)N[C@@H]([C@@H](C)CC)C(=O)N(C)CC(=O)N(C)[C@H]2C/C=C\CCN(C2=O)[C@@H](Cc2ccc(C)cc2)C(=O)N(C)CC(=O)N[C@@H](CCc2cc(F)c(C(F)(F)F)c(F)c2)C(=O)N2C[C@H](OCC)C[C@H]2C(=O)NC2(CC(C)(C)C2)C(=O)N(C)[C@@H](CC2CCC2)C(=O)N(C)[C@H](C(=O)N(C)C)CC(=O)N1C [PP2751] | A (a compound having 10 or more and less than 20 is denoted as A) | A (a compound having 10 or more and less than 20 is denoted as A)
6 | CCCOC[C@H]1C(=O)N[C@@H]([C@@H](C)CC)C(=O)N(C)CC(=O)N(C)[C@H]2C/C=C\CCN(C2=O)[C@@H](Cc2ccc(C)cc2)C(=O)N(C)CC(=O)N[C@@H](CCc2cc(F)c(C(F)(F)F)c(F)c2)C(=O)N2C[C@H](OCC)C[C@H]2C(=O)NC2(CC(C)(C)C2)C(=O)N(C)[C@@H](CC2CCC2)C(=O)N(C)[C@H](C(=O)N(C)C)CC(=O)N1C [PP2752] | A (a compound having 10 or more and less than 20 is denoted as A) | A (a compound having 10 or more and less than 20 is denoted as A)
7 | CCC[C@H]1C(=O)N[C@@H]([C@@H](C)CC)C(=O)N(C)CC(=O)N(C)[C@H]2C/C=C\CCN(C2=O)[C@@H](Cc2ccc(C)cc2)C(=O)N(C)CC(=O)N[C@@H](CCc2ccc(C(F)(F)F)c(OC)c2)C(=O)N2C[C@H](OCC)C[C@H]2C(=O)NC2(CC(C)(C)C2)C(=O)N(C)[C@@H](CC2CCC2)C(=O)N(C)[C@H](C(=O)N(C)C)CC(=O)N1C [PP2753] | A (a compound having 10 or more and less than 20 is denoted as A) | B (a compound having 3 or more and less than 10 is denoted as B)
8 | CCC[C@H]1C(=O)N[C@@H]([C@@H](C)CC)C(=O)N(C)CC(=O)N(C)[C@H]2C/C=C\CCN(C2=O)[C@@H](Cc2ccc(C)cc2)C(=O)N(C)CC(=O)N[C@@H](CCc2ccc(Cl)c(Cl)c2)C(=O)N2C[C@H](OCC)C[C@H]2C(=O)NC2(CC(C)(C)C2)C(=O)N(C)[C@@H](CC2CCC2)C(=O)N(C)[C@H](C(=O)N(C)C)CC(=O)N1C [PP2755] | A (a compound having 10 or more and less than 20 is denoted as A) | A (a compound having 10 or more and less than 20 is denoted as A)
9 | CCC[C@H]1C(=O)N[C@@H]([C@@H](C)CC)C(=O)N(C2CC2)CC(=O)N(C)[C@H]2C/C=C\CCN(C2=O)[C@@H](Cc2ccc(C)cc2)C(=O)N(C)CC(=O)N[C@@H](CCc2ccc(Cl)c(Cl)c2)C(=O)N2C[C@H](OCC)C[C@H]2C(=O)NC2(CC(C)(C)C2)C(=O)N(C)[C@@H](CC2CCC2)C(=O)N(C)[C@H](C(=O)N(C)C)CC(=O)N1C [PP2761] | A (a compound having 10 or more and less than 20 is denoted as A) | A (a compound having 10 or more and less than 20 is denoted as A)
10 | CCOC[C@H]1C(=O)N[C@@H]([C@@H](C)CC)C(=O)N(C2CC2)CC(=O)N(C)[C@H]2C/C=C\CCN(C2=O)[C@@H](Cc2ccc(C)cc2)C(=O)N(C)CC(=O)N[C@@H](CCc2ccc(Cl)c(Cl)c2)C(=O)N2C[C@H](OCC)C[C@H]2C(=O)NC2(CC(C)(C)C2)C(=O)N(C)[C@@H](CC2CCC2)C(=O)N(C)[C@H](C(=O)N(C)C)CC(=O)N1C [PP2762] | A (a compound having 10 or more and less than 20 is denoted as A) | A (a compound having 10 or more and less than 20 is denoted as A)
11 | CCOC[C@H]1C(=O)N[C@@H]([C@@H](C)CC)C(=O)N(C)CC(=O)N(C)[C@H]2C/C=C\CCN(C2=O)[C@@H](Cc2ccc(C(F)(F)F)cc2)C(=O)N(C)CC(=O)N[C@@H](CCc2cc(F)c(C(F)(F)F)c(F)c2)C(=O)N2C[C@H](OCC)C[C@H]2C(=O)NC2(CC(C)(C)C2)C(=O)N(C)[C@@H](CC2CCC2)C(=O)N(C)[C@H](C(=O)N(C)C)CC(=O)N1C [PP2763] | A (a compound having 10 or more and less than 20 is denoted as A) | A (a compound having 10 or more and less than 20 is denoted as A)
12 | CCC[C@H]1C(=O)N[C@@H]([C@@H](C)CC)C(=O)N(C)CC(=O)N(C)[C@H]2C/C=C\CCN(C2=O)[C@@H](Cc2ccc(C(F)(F)F)cc2)C(=O)N(C)CC(=O)N[C@@H](CCc2ccc(C(F)(F)F)c(OC)c2)C(=O)N2C[C@H](OCC)C[C@H]2C(=O)NC2(CC(C)(C)C2)C(=O)N(C)[C@@H](CC2CCC2)C(=O)N(C)[C@H](C(=O)N(C)C)CC(=O)N1C [PP2764] | A (a compound having 10 or more and less than 20 is denoted as A) | A (a compound having 10 or more and less than 20 is denoted as A)
13 | CCOC[C@H]1C(=O)N[C@@H]([C@@H](C)CC)C(=O)N(C)CC(=O)N(C)[C@H]2C/C=C\CCN(C2=O)[C@@H](Cc2ccc(C(F)(F)F)cc2)C(=O)N(C)CC(=O)N[C@@H](CCc2ccc(C(F)(F)F)c(OC)c2)C(=O)N2C[C@H](OCC)C[C@H]2C(=O)NC2(CC(C)(C)C2)C(=O)N(C)[C@@H](CC2CCC2)C(=O)N(C)[C@H](C(=O)N(C)C)CC(=O)N1C [PP2765] | A (a compound having 10 or more and less than 20 is denoted as A) | A (a compound having 10 or more and less than 20 is denoted as A)
14 | CCC[C@H]1C(=O)N[C@@H]([C@@H](C)CC)C(=O)N(C)CC(=O)N(C)[C@H]2C/C=C\CCN(C2=O)[C@@H](Cc2ccc(C(F)(F)F)cc2)C(=O)N(C)CC(=O)N[C@@H](CCc2ccc(Cl)c(Cl)c2)C(=O)N2C[C@H](OCC)C[C@H]2C(=O)NC2(CC(C)(C)C2)C(=O)N(C)[C@@H](CC2CCC2)C(=O)N(C)[C@H](C(=O)N(C)C)CC(=O)N1C [PP2766] | A (a compound having 10 or more and less than 20 is denoted as A) | A (a compound having 10 or more and less than 20 is denoted as A)
15 | CCOC[C@H]1C(=O)N[C@@H]([C@@H](C)CC)C(=O)N(C)CC(=O)N(C)[C@H]2C/C=C\CCN(C2=O)[C@@H](Cc2ccc(C(F)(F)F)cc2)C(=O)N(C)CC(=O)N[C@@H](CCc2ccc(Cl)c(Cl)c2)C(=O)N2C[C@H](OCC)C[C@H]2C(=O)NC2(CC(C)(C)C2)C(=O)N(C)[C@@H](CC2CCC2)C(=O)N(C)[C@H](C(=O)N(C)C)CC(=O)N1C [PP2767] | A (a compound having 10 or more and less than 20 is denoted as A) | A (a compound having 10 or more and less than 20 is denoted as A)

Source: patent US20250230193A1, “CYCLIC COMPOUND HAVING SELECTIVE KRAS INHIBITORY EFFECT ON HRAS AND NRAS” (CHUGAI SEIYAKU KABUSHIKI KAISHA, priority 2022, published 2025)
